Laboratory results taken from patent publication US20250127904A1, “SIGLEC LIGANDS, CONJUGATES, AND METHODS OF USE THEREOF” (Osprey Biopharmaceuticals, Inc., priority 2023, published 2025).

Assays:
[1] = biological target: T1, biotinylated mouse siglec-2-Fc-Avi (Mus musculus, UniProt P35329); experiment: SPR binding to mouse siglec-2/CD22; details: steady-state analysis, read-out: Mouse CD22 affinity
T1 construct: made in house
T1 sequence (P35329 22-708 limits assumed): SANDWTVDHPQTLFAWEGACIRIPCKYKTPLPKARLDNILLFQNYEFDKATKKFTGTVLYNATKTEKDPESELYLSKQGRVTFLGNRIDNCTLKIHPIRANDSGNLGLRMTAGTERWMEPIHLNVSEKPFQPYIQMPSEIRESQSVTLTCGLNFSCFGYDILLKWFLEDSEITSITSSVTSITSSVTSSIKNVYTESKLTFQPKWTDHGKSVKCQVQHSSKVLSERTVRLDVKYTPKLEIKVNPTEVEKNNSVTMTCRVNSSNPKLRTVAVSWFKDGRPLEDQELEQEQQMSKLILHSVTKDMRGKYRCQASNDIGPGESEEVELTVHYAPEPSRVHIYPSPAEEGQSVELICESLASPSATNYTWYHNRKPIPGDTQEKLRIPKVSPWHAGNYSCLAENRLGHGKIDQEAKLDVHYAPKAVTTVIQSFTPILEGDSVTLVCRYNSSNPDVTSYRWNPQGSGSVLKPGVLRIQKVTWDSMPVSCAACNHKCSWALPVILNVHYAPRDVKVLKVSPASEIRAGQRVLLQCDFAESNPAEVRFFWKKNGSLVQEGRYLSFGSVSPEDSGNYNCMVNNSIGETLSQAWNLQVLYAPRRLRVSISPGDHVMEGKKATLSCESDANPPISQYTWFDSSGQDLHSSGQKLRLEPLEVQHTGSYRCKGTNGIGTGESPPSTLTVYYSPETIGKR
Protocol: (§1) The following proteins were used for CD22 ligand binding: biotinylated human siglec-2/CD22 protein-His-Avitag (Acro Biosystems, Cat #SI2-H82E3), biotinylated mouse siglec-2-Fc-Avi (in-house production), and recombinant cynomolgus siglec-2/CD22 His-tag (R&D systems, Cat #9864-SL-050). Prior to immobilization, CD22 proteins were treated with SialoExo (Genovis, Cat #G1-SM1-020) for 4 hours at 37° C. to remove native sialic acid residues.
(§2) Capture of biotinylated CD22 constructs was performed using a Cytiva SA chip (BR100398) on a Biacore 8K instrument. Human siglec 2 was immobilized on channels 1-4 and mouse siglec 2 on channels 5-8 on the active flow cell (2) and the reference flow cell (1) was immobilized with biotinylated human FGFR2 Fc Avi, an unrelated protein, to account for any nonspecific binding. Human siglec 2 and Mouse siglec 2 were diluted in running buffer to 20 μg/mL and injected on the active flow cell (2) for 300 seconds at 5 μL/min, yielding about 3500 RU of captured constructs.
(§3) Binding experiments of siglec-ligand conjugated proteins or Siglec ligand compounds were performed on the surfaces prepared above in 10 mM HEPES, 150 mM NaCl, 0.05% Tween-20, pH 7.5, 1% DMSO as the running buffer. Compounds were serially diluted in running buffer from 50 μM to 97.6 nM and injected over both the reference and active flow cells for 90 seconds at 30 μL/min. The compounds were then allowed to dissociate from the surface for 120 seconds. No regeneration was required as the compounds completely dissociated from the surface after 30 seconds. Solvent correction was performed using 0.5, 1, 1.5, and 2% DMSO spike into running buffer without DMSO. Data was analyzed using steady-state analysis in Biacore Insight Evaluation Software, version 3.0.

[2] = biological target: T2, biotinylated human siglec-2/CD22 protein-His-Avitag (Homo sapiens, UniProt P20273); experiment: SPR binding to human siglec-2/CD22; details: steady-state analysis, read-out: Human CD22 affinity
T2 construct: purchased Acro Biosystems SI2-H82E3
T2 sequence (P20273 20-847): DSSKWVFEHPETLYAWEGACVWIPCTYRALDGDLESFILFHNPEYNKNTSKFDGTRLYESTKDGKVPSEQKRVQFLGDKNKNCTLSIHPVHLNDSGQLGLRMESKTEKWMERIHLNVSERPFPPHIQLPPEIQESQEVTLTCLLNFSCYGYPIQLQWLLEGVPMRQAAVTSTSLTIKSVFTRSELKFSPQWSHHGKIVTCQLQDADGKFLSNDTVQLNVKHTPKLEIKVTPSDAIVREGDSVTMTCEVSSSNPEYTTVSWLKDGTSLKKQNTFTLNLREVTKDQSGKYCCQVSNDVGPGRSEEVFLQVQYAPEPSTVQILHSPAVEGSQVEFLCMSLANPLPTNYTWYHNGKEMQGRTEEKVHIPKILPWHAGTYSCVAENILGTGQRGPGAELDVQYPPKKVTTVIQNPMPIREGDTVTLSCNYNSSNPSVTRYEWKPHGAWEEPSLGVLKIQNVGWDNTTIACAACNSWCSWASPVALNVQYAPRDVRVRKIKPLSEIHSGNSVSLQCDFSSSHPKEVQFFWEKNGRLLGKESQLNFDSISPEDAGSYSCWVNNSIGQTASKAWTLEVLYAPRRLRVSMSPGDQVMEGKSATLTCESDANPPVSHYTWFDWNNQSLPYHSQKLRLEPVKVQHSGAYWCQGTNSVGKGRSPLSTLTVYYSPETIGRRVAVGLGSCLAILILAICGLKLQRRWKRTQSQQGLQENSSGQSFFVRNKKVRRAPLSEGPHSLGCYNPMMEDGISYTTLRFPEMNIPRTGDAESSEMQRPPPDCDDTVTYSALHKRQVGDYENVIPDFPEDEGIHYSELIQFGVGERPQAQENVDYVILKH
Protocol: as §1, §2, §3

[3] = biological target: recombinant cynomolgus siglec-2/CD22 His-tag (Macaca fascicularis, UniProt A0A2K5WCZ6); experiment: SPR binding to cynomolgus siglec-2/CD22; details: steady-state analysis, read-out: Cyno CD22 affinity
recombinant cynomolgus siglec-2/CD22 His-tag, sequence (A0A2K5WCZ6 entry or part of it): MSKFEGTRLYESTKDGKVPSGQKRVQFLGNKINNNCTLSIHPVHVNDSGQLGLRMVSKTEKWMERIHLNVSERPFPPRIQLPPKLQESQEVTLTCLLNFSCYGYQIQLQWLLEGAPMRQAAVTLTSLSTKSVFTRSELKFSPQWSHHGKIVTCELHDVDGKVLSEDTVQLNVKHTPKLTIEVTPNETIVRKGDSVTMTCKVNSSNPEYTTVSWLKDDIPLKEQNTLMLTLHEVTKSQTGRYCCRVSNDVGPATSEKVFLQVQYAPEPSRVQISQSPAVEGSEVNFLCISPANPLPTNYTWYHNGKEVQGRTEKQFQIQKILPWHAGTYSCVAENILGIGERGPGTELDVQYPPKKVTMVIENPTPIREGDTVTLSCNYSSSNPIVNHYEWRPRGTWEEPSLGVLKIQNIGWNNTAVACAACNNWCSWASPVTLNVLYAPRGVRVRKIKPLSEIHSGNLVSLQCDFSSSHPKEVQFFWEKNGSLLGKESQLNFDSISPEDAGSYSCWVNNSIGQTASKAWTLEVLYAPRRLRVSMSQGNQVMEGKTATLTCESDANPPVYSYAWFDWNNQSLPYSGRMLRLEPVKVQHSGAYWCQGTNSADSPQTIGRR
Protocol: as §1
Surface preparation for cyno CD22 protein consisted of amine coupling to Cytiva CM5 chip (Cytiva, Cat #BR100530) using the Cytiva amine coupling kit Type 2 (Cytiva, Cat #BR100633). Following the standard amine coupling protocols, EDC and NHS from the kit were mixed 1:1 and injected over flow cells 1 and 2. Cyno CD22 was then immobilized by injecting 10 μg/mL in Sodium Acetate, pH 5.5 onto flow cell (2) for 420 seconds at 10 uL/min, yielding approximately 2500 RU of captured protein. Any active carboxy groups were then capped with 1M Ethanolamine, pH 8.5 for 420 s on flow cells 1 and 2.
as §3

Compound	Kd [1] [nM]	Kd [2] [nM]	Kd [3] [nM]
C#CCOCCOCCOCCOCCOCCNC(=O)N[C@H]1[C@H]([C@H](O)[C@H](O)CNC(=O)Cc2ccc(Cl)cc2)O[C@@](OCc2ccccc2)(C(=O)O)C[C@@H]1O [Compound 22, (2R,4S,5R,6R)-5-(3-(3,6,9,12,15-pentaoxaoctadec-17-yn-1-yl)ureido)-2-(benzyloxy)-6-((1R,2R)-3-(2-(4-chlorophenyl)acetamido)-1,2-dihydroxypropyl)-4-hydroxytetrahydro-2H-pyran-2-carboxylic acid]	1000 to 10000	> 10000	1000 to 10000
CCCNC(=O)CCOCCOCCOCCOCCn1cc(-c2ccc(CC(=O)NC[C@@H](O)[C@@H](O)[C@@H]3O[C@@](OCCCCCCn4cc(COCCOC)nn4)(C(=O)O)C[C@H](O)[C@H]3NC(=O)CO)cc2)nn1 [Compound 55, (2R,4S,5R,6R)-6-((1R,2R)-1,2-dihydroxy-3-(2-(4-(1-(15-oxo-3,6,9,12-tetraoxa-16-azanonadecyl)-1H-1,2,3-triazol-4-yl)phenyl)acetamido)propyl)-4-hydroxy-5-(2-hydroxyacetamido)-2-((6-(4-((2-methoxyethoxy)methyl)-1H-1,2,3-triazol-1-yl)hexyl)oxy)tetrahydro-2H-pyran-2-carboxylic acid]	1000 to 10000	< 1000	1000 to 10000
C#CCOCCOCCOCc1ccc(CC(=O)NC[C@@H](O)[C@@H](O)[C@@H]2O[C@@](OCc3ccccc3)(C(=O)O)C[C@H](O)[C@H]2NC(=O)CO)cc1 [Compound 9, (2R,4S,5R,6R)-2-(benzyloxy)-6-((1R,2R)-1,2-dihydroxy-3-(2-(4-((2-(2-(prop-2-yn-1-yloxy)ethoxy)ethoxy)methyl)phenyl)acetamido)propyl)-4-hydroxy-5-(2-hydroxyacetamido)tetrahydro-2H-pyran-2-carboxylic acid]	1000 to 10000	1000 to 10000	1000 to 10000

Other lines, results leading:

Kd [1] [nM]	Kd [2] [nM]	Kd [3] [nM]	Compound
< 1000	< 1000	< 1000	C#Cc1ccc(CC(=O)NC[C@@H](O)[C@@H](O)[C@@H]2O[C@@](OCCCCCCn3cc(COCCOC)nn3)(C(=O)O)C[C@H](O)[C@H]2NC(=O)CO)cc1 [Compound 28, (2R,4S,5R,6R)-6-((1R,2R)-3-(2-(4-ethynylphenyl)acetamido)-1,2-dihydroxypropyl)-4-hydroxy-5-(2-hydroxyacetamido)-2-((6-(4-((2-methoxyethoxy)methyl)-1H-1,2,3-triazol-1-yl)hexyl)oxy)tetrahydro-2H-pyran-2-carboxylic acid]
< 1000	< 1000	1000 to 10000	C#Cc1ccc(CC(=O)NC[C@@H](O)[C@@H](O)[C@@H]2O[C@@](OCc3ccccc3)(C(=O)O)C[C@H](O)[C@H]2NC(=O)CO)cc1 [Compound 1, (2R,4S,5R,6R)-2-(benzyloxy)-6-((1R,2R)-3-(2-(4-ethynylphenyl)acetamido)-1,2-dihydroxypropyl)-4-hydroxy-5-(2-hydroxyacetamido)tetrahydro-2H-pyran-2-carboxylic acid]
< 1000	< 1000	< 1000	C#Cc1ccc(CC(=O)NC[C@@H](O)[C@@H](O)[C@@H]2O[C@@](SCc3ccccc3)(C(=O)O)C[C@H](O)[C@H]2NC(=O)CO)cc1 [Compound 12, (2S,4S,5R,6R)-2-(benzylthio)-6-((1R,2R)-3-(2-(4-ethynylphenyl)acetamido)-1,2-dihydroxypropyl)-4-hydroxy-5-(2-hydroxyacetamido)tetrahydro-2H-pyran-2-carboxylic acid]
< 1000	< 1000	1000 to 10000	O=C(O)CCCCCCCCCCc1ccc(CC(=O)NC[C@@H](O)[C@@H](O)[C@@H]2O[C@@](OCc3ccccc3)(C(=O)O)C[C@H](O)[C@H]2NC(=O)CO)cc1 [Compound 8, (2R,4S,5R,6R)-2-(benzyloxy)-6-((1R,2R)-3-(2-(4-(10-carboxydecyl)phenyl)acetamido)-1,2-dihydroxypropyl)-4-hydroxy-5-(2-hydroxyacetamido)tetrahydro-2H-pyran-2-carboxylic acid]
